Source: PMC4522710, “A putative ATPase mediates RNA transcription and capping in a dsRNA virus” (eLife, 2015)

Molecular target: T1, CPV turret protein (TP) (Bombyx mori cypovirus 1, UniProt Q914N6)
T1 construct: native full-length protein in intact virions purified from polyhedra; GTase, bridge, MT-1 and MT-2 domains; pentameric turret
Assay: cryoEM structure of virion complex
Assay type: binding
Conditions: 10 mM MgCl2, pH 8.0, 31 °C

Compound	cryoEM structure of virion complex (1 mM SAM, MT-2 site (SAM alone, 3JB1), MT-1 and MT-2 sites with ATP and/or GTP present (3JAY, 3JB2, 3JB3))	cryoEM structure of virion complex (2 mM GTP, GTase site (all four structures), also putative ATPase site with SAM without ATP (3JB2))
C[S+](CC[C@H](N)C(=O)O)C[C@H]1O[C@@H](n2cnc3c(N)ncnc32)[C@H](O)[C@@H]1O (some centres unmarked) [SAM]	In S-CPV, one SAM binds to the MT-2 domain of each TP.	
Nc1nc2c(ncn2[C@@H]2O[C@H](COP(=O)(O)OP(=O)(O)OP(=O)(O)O)[C@@H](O)[C@H]2O)c(=O)[nH]1 [GTP]		In G-CPV, one GTP binds to the GTase site of GTase domain.
